According to patent publication US20230076733A1, “Combination Therapy” (AGENCY FOR SCIENCE, TECHNOLOGY AND RESEARCH, priority 2020, published 2023):
Several values for one entry are separate records, joined by “and”; a condition that tells them apart may be missing. Identical values can stand only once.

What was measured:
Format in all cases: cell-based
EGI-1 cells = assay: soft agar colony formation assay, EGI-1 cells; settings: for Colony count: duplicate wells
Method: (§1) The IC50 and EC50 values for each combination partner (a) and (b) with the specific cell lines are determined from the response plot. A dose-response assay for each combination partner and the combination at different concentrations based on the IC50 values of each combination partner was performed. Computed EC50-EC95 values were then generated by a software (as disclosed herein) based on the drug concentration and the respective colony growth numbers.
(§2) 6. Cell lines used and number of cells seeded per well
(§3) (1) Base Layer—0.6% Agar per 300 μL per well.
(§4) Microwave the agar for 1-2 min so that it is completely melted. Add 5.4 ml of the melted agar into 21.6 ml of pre-warmed media (All media and agar preparation is made in excess for 2.5 plates). Aliquot 300 μl of the suspension into each well, avoiding the first and last columns of the plates. Fill the first and last columns of wells with 500 μl of sterile water or phosphate buffered saline. Incubate the plates in 37° C. incubator for 45 min-1 hr to allow agar to solidify.
(§5) (2) Middle Layer— 0.3% Agar plus corresponding number of cells per well
(§6) Trypsinize the adherent cells and suspend them in 5 ml of media. Determine the number of cells in the suspension and calculate the volume of cell suspension required for seeding. Mix the agar and media together first, excluding the volume of cell suspension. Add the cell suspension last into the mixture. Mix well and aliquot 250 μl into each well containing the base layer. Incubate the plates in a 37° C. incubator for 1-1.5 hrs to allow the agar to solidify.
(§7) Prepare the required concentration of compounds based on the IC50 values of each drug.
(§8) (Pre-determine the IC50 values for each drug with the corresponding cell-line using a dose-response assay)
(§9) Row A& B: Aliquot 250 μl of diluted Drug A per well
(§10) Row C&D: Aliquot 250 μl of diluted Drug B per well
(§11) Row E& F: Aliquot 250 μl of diluted Drug A and B mixed at 1:1 ratio for each well
(§12) Assay Results Analysis Method • 1. Score the colonies after 2 to 3 weeks depending on the colony forming status for different cell line. • 2. Before scoring the colonies, add 35 μl MTT (5 mg/ml) to the wells with cells and incubate at 37° C. for 2-3 hrs depending on the intensity of colour development. • 3. Once the colonies are stained, count the total number of colonies formed using the Oxford Optronix GelCount® instrument. • 4. Average the total number of colonies obtained for each drug dose point and represent it as a fraction over the control. This represents the fraction of colony growth. […] Incorporate the fraction of inhibition and the corresponding dose values into the Chou Talalay Software available online (http://www.combosyn.com/) to obtain the combination index values. • 6. The combination index values will give an indication as to whether the combined drugs are synergistic, antagonistic or additive in the treated cells, as shown in Table 2 below.
FIG. 2 illustrates a dose-response assay plate containing EGI-1 cells (Test 1) after testing compounds at different concentrations based on the IC50 values of each compound. EGI-1 is a cell line established from cholangiocarcinoma (bile duct adenocarcinoma).

HPAF-II cells [1] = assay: soft agar colony formation assay, HPAF-II cells; settings: for Colony count: HPAF-II, duplicate wells
Method: as §1, §2, §3, §4, §5, §6, §7, §8, §9, §10, §11, §12
FIG. 4 illustrates of a dose-response assay plate containing HPAF-II cells (Test 1) after testing compounds at different concentrations based on the IC50 values of each compound. HPAF-II is a cell line established from pancreatic ductal adenocarcinoma (pancreatic cancer).

CFPAC-1 cells = assay: soft agar colony formation assay, CFPAC-1 cells; settings: for Colony count: duplicate wells
Method: as §1, §2, §3, §4, §5, §6, §7, §8, §9, §10, §11, §12
FIG. 8 illustrates a dose-response assay plate containing CFPAC-1 cells (Test 1) after testing compounds at different concentrations based on the IC50 values of each compound. CFPAC-1 is a cell line established from cystic fibrosis and pancreatic ductal adenocarcinoma.

TFK-1 cells = assay: soft agar colony formation assay, TFK-1 cells; settings: for Colony count: duplicate wells
Method: as §1, §2, §3, §4, §5, §6, §7, §8, §9, §10, §11, §12
FIG. 10 illustrates a dose-response assay plate containing TFK-1 cells (Test 1) after testing compounds at different concentrations based on the IC50 values of each compound. TFK-1 is a cell line established from cholangiocarcinoma (bile duct adenocarcinoma).

HPAF-II cells [2] = assay: expression of DNA repair genes by qRT-PCR, HPAF-II cells; settings: 100 nM for 48 hr versus DMSO
Method: (§13) Tumors were homogenised in RLT buffer using a polytron homogenizer. Total RNA was isolated using RNAeasy kit (Qiagen, Germany) according to manufacturer's protocol. For qPT-PCR, RNA was reverse transcribed with iScript reverse transcriptase (BioRAD, Hercules, Calif., USA). Real time quantitative PCR (qPCR) was performed using SsoFast EvaGreen assay Supermix from BioRad (Hercules, Calif., USA). EPN1 and ACTB were used as housekeeping genes.
(§14) Inhibition of Wnt signalling reduces expression of DNA repair genes: HPAF-II, AsPC-1 or PaTu899S cells were treated with either DMSO or 100 nM compound of Formula (I) for 48 hr. The expression of the indicated genes was measured by qRT-PCR. FIGS. 14-16 illustrates the results.

AsPC-1 cells = assay: expression of DNA repair genes by qRT-PCR, AsPC-1 cells; settings: 100 nM for 48 hr versus DMSO
Method: as §13, §14

PaTu899S cells = assay: expression of DNA repair genes by qRT-PCR, PaTu899S cells; settings: 100 nM for 48 hr versus DMSO
Method: as §13, §14

For `Cn1c(=O)c2c(ncn2CC(=O)Nc2ccc(-c3ccccc3)nn2)n(C)c1=O` [Ex 1, 2-(1,3-dimethyl-2,6-dioxo-2,3-dihydro-1H-purin-7 (6H)-yl)-N-(6-phenylpyridazin-3-yl)acetamide], the Colony count (EGI-1 cells; EGI-1, Test 1, 0.25x IC50: dose Olaparib 2.16362, Ex 1 0.00687, combination both 1:1) was 1742 and 1591, the Colony count (EGI-1 cells; EGI-1, Test 1, 0.5x IC50: dose Olaparib 4.32725, Ex 1 0.01375, combination both 1:1) was 1351 and the Colony count (EGI-1 cells; EGI-1, Test 1, 1x IC50: dose Olaparib 8.6545, Ex 1 0.0275, combination both 1:1) was 985 and 912. The Colony count (EGI-1 cells; EGI-1, Test 1, 2x IC50: dose Olaparib 17.309, Ex 1 0.055, combination both 1:1) was 608 and 646, the Colony count (EGI-1 cells; EGI-1, Test 1, 4x IC50: dose Olaparib 34.618, Ex 1 0.11, combination both 1:1) was 515 and 465 and the Colony count (EGI-1 cells; EGI-1, Test 2, 0.25x IC50: dose Olaparib 2.16362, Ex 1 0.00687, combination both 1:1) was 1488 and 1451. For the same compound, the Colony count (EGI-1 cells; EGI-1, Test 2, 0.5x IC50: dose Olaparib 4.32725, Ex 1 0.01375, combination both 1:1) was 1242 and 1139, the Colony count (EGI-1 cells; EGI-1, Test 2, 1x IC50: dose Olaparib 8.6545, Ex 1 0.0275, combination both 1:1) was 816 and 771 and the Colony count (EGI-1 cells; EGI-1, Test 2, 2x IC50: dose Olaparib 17.309, Ex 1 0.055, combination both 1:1) was 568 and 476. For the same compound, the Colony count (EGI-1 cells; EGI-1, Test 2, 4x IC50: dose Olaparib 34.618, Ex 1 0.11, combination both 1:1) was 434 and 412, the IC50 (EGI-1 cells; EGI-1 cells, pre-determined by dose-response assay) was 27.5 nM and the IC50 (HPAF-II cells [1]; HPAF-II cells, pre-determined by dose-response assay) was 7.7 nM. The Colony count (HPAF-II cells [1]; Test 1, 0.25x IC50: dose Olaparib 9.7975, Ex 1 0,001929, combination both 1:1) was 564 and 493, the Colony count (HPAF-II cells [1]; Test 1, 0.5x IC50: dose Olaparib 19.535, Ex 1 0.003883, combination both 1:1) was 499 and 416 and the Colony count (HPAF-II cells [1]; Test 1, 1x IC50: dose Olaparib 39.19, Ex 1 0,007577, combination both 1:1) was 387 and 453. For the same compound, the Colony count (HPAF-II cells [1]; Test 1, 2x IC50: dose Olaparib 78.38, Ex 1 0.015354, combination both 1:1) was 362 and 345, the Colony count (HPAF-II cells [1]; Test 1, 4x IC50: dose Olaparib 156.76, Ex 1 0.030707, combination both 1:1) was 260 and 201 and the Colony count (HPAF-II cells [1]; Test 2, 0.25x IC50: dose Olaparib 9.7975, Ex 1 0.001929, combination both 1:1) was 350 and 489. The Colony count (HPAF-II cells [1]; Test 2, 0.5x IC50: dose Olaparib 13.595, Ex 1 0.003838, combination both 1:1) was 415 and 426, the Colony count (HPAF-II cells [1]; Test 2, 1x IC50: dose Olaparib 39.19, Ex 1 0.007677, combination both 1:1) was 296 and the Colony count (HPAF-II cells [1]; Test 2, 2x IC50: dose Olaparib 78.38, Ex 1 0.015354, combination both 1:1) was 200 and 150. For the same compound, the Colony count (HPAF-II cells [1]; Test 2, 4x IC50: dose Olaparib 156.76, Ex 1 0.030707, combination both 1:1) was 127 and 105, the Colony count (CFPAC-1 cells; CFPAC-1, Test 1, 0.25x IC50: dose Olaparib 1.5625, Ex 1 0.00675, combination both 1:1) was 441 and 464 and the Colony count (CFPAC-1 cells; CFPAC-1, Test 1, 0.5x IC50: dose Olaparib 3.125, Ex 1 0.0135, combination both 1:1) was 445 and 505. The Colony count (CFPAC-1 cells; CFPAC-1, Test 1, 1x IC50: dose Olaparib 6.25, Ex 1 0.027, combination both 1:1) was 386 and 412, the Colony count (CFPAC-1 cells; CFPAC-1, Test 1, 2x IC50: dose Olaparib 12.5, Ex 1 0.054, combination both 1:1) was 346 and 322 and the Colony count (CFPAC-1 cells; CFPAC-1, Test 1, 4x IC50: dose Olaparib 25, Ex 1 0.108, combination both 1:1) was 315 and 320. The Colony count (CFPAC-1 cells; CFPAC-1, Test 2, 0.25x IC50: dose Olaparib 1.5625, Ex 1 0.00675, combination both 1:1) was 676 and 624, the Colony count (CFPAC-1 cells; CFPAC-1, Test 2, 1x IC50: dose Olaparib 6.25, Ex 1 0.027, combination both 1:1) was 649 and 563 and the Colony count (CFPAC-1 cells; CFPAC-1, Test 2, 2x IC50: dose Olaparib 12.5, Ex 1 0.054, combination both 1:1) was 581 and 588. For the same compound, the Colony count (CFPAC-1 cells; CFPAC-1, Test 2, 4x IC50: dose Olaparib 25, Ex 1 0.108, combination both 1:1) was 536 and 527, the IC50 (CFPAC-1 cells; CFPAC-1 cells, pre-determined by dose-response assay) was 27 nM and the Colony count (TFK-1 cells; TFK-1, Test 1, 0.25x IC50: dose Olaparib 4.5, Ex 1 3, combination both 1:1) was 921 and 950. The Colony count (TFK-1 cells; TFK-1, Test 1, 0.5x IC50: dose Olaparib 9, Ex 1 6, combination both 1:1) was 805 and 700, the Colony count (TFK-1 cells; TFK-1, Test 1, 1x IC50: dose Olaparib 18, combination both 1:1) was 557 and 581 and the Colony count (TFK-1 cells; TFK-1, Test 1, 2x IC50: dose Olaparib 36, Ex 1 24, combination both 1:1) was 402 and 384. For the same compound, the Colony count (TFK-1 cells; TFK-1, Test 1, 4x IC50: dose Olaparib 72, Ex 1 48, combination both 1:1) was 239 and 198, the Colony count (TFK-1 cells; TFK-1, Test 2, 0.25x IC50: dose Olaparib 4.5, Ex 1 3, combination both 1:1) was 916 and 840 and the Colony count (TFK-1 cells; TFK-1, Test 2, 0.5x IC50: dose Olaparib 9, Ex 1 6, combination both 1:1) was 770 and 818. The Colony count (TFK-1 cells; TFK-1, Test 2, 1x IC50: dose Olaparib 18, combination both 1:1) was 567 and 559, the Colony count (TFK-1 cells; TFK-1, Test 2, 2x IC50: dose Olaparib 36, Ex 1 24, combination both 1:1) was 336 and 249 and the Colony count (TFK-1 cells; TFK-1, Test 2, 4x IC50: dose Olaparib 72, Ex 1 48, combination both 1:1) was 101 and 148. For the same compound, the IC50 (TFK-1 cells; TFK-1 cells, pre-determined by dose-response assay) was 12000 nM, the “expression of DNA repair genes BRCA1, BRCA2, FANCD2, FANCG, RAD51 and XRCC3” value (“expression of DNA repair genes BRCA1” below) (HPAF-II cells [2]) was “inhibited the expression of DNA repair genes” and the “expression of DNA repair genes BRCA1” value (AsPC-1 cells) was “inhibited the expression of DNA repair genes”. For the same compound, the “expression of DNA repair genes BRCA1” value (PaTu899S cells) was “inhibited the expression of DNA repair genes”.
